Assay [1] deals with Tobacco mosaic virus. The assay can be described thus: Antiviral activity against Tobacco mosaic virus (TMV) assessed as inhibition of viral replication at 0.2 mg/ml after 48 hr by leaf disk method relative to control. It counts as functional.
Assay [2] concerns Tobacco mosaic virus. The assay is described as follows: Antiviral activity against Tobacco mosaic virus (TMV) assessed as inhibition of viral replication after 48 hr by leaf disk method. The format is functional, organism-based.
The subject of assay [3] is Tobacco mosaic virus. The assay is described as follows: Antiviral activity against Tobacco mosaic virus (TMV) assessed as inhibition of viral replication at 0.025 mg/ml after 48 hr by leaf disk method relative to control. It counts as functional.
The test system of assay [4] is Tobacco mosaic virus. The assay can be described thus: Antiviral activity against Tobacco mosaic virus (TMV) assessed as inhibition of viral replication at 0.1 mg/ml after 48 hr by leaf disk method relative to control. The format is functional.
For assay [5], the system named is Tobacco mosaic virus. The assay can be described thus: Antiviral activity against Tobacco mosaic virus (TMV) assessed as inhibition of viral replication at 0.05 mg/ml after 48 hr by leaf disk method relative to control. The format is functional.
Assay [6] deals with Tobacco mosaic virus. The assay is described as follows: Antiviral activity against Tobacco mosaic virus (TMV) assessed as inhibition of viral replication at 0.4 mg/ml after 48 hr by leaf disk method relative to control. The format is functional.

SMILES strings stand for the structures. In brackets after ≈: the same amount, converted by molar mass.

Our source for the inhibition, EC50 and Imax values is ChEMBL document CHEMBL3046833, “Six new triterpenoid saponins from the leaves of Ilex oblonga and their inhibitory activities against TMV replication” (Chem Pharm Bull (Tokyo), 2007).

What is called inhibition is the share of the control response that was lost under treatment. As a reminder, the EC50 is the concentration that produces a half-maximal response.

With `CC1=C(C)[C@H]2C3=CC[C@@H]4[C@@]5(C)CC[C@H](O)[C@@](C)(CO)[C@@H]5CC[C@@]4(C)[C@]3(C)CC[C@@]2(C(=O)O[C@@H]2O[C@H](CO)[C@@H](O)[C@H](O)[C@H]2O)CC1`, the inhibition at 200 µg/mL with Tobacco mosaic virus [1] was determined as 41.1%.
On the same count and under the same terms, then `CC1=C2C3=CC[C@@H]4[C@@]5(C)CC[C@H](O)[C@@](C)(CO)[C@@H]5CC[C@@]4(C)[C@]3(C)CC[C@@]2(C(=O)O[C@@H]2O[C@H](CO)[C@@H](O)[C@H](O)[C@H]2O)CC[C@H]1C`, with 47.3%; and `CC1=C2C3=CC[C@@H]4[C@@]5(C)CC[C@H](O[C@@H]6OC[C@@H](O)[C@H](O)[C@H]6O)C(C)(C)[C@@H]5CC[C@@]4(C)[C@]3(C)CC[C@@]2(C(=O)O[C@@H]2O[C@H](CO)[C@@H](O)[C@H](O)[C@H]2O)CC[C@H]1C`, with 33%; and `C=C1C2C3=CC[C@@H]4[C@@]5(C)CC[C@H](O)[C@@](C)(CO)[C@@H]5CC[C@@]4(C)[C@]3(C)CC[C@@]2(C(=O)O[C@@H]2O[C@H](CO)[C@@H](O)[C@H](O)[C@H]2O)CC[C@H]1C` (stereo not given in full), with 29.6%.
Still for that read-out and setting: the value for `CC1=C2C3=CC[C@@H]4[C@@]5(C)CC[C@H](O[C@@H]6OC[C@@H](O)[C@H](O)[C@H]6O)[C@@](C)(CO)[C@@H]5CC[C@@]4(C)[C@]3(C)CC[C@@]2(C(=O)O[C@@H]2O[C@H](CO)[C@@H](O)[C@H](O)[C@H]2O)CC[C@H]1C` [OBLONGANOSIDE C] was 38.6%; that for `C=C1C2C3=CC[C@@H]4[C@@]5(C)CC[C@H](O[C@@H]6OC[C@@H](O)[C@H](O)[C@H]6O)C(C)(C)[C@@H]5CC[C@@]4(C)[C@]3(C)CC[C@@]2(C(=O)O[C@@H]2O[C@H](CO)[C@@H](O)[C@H](O)[C@H]2O)CC[C@H]1C` (stereo not given in full) [OBLONGANOSIDE D] was 37.7%.
For `CC1=C(C)[C@H]2C3=CC[C@@H]4[C@@]5(C)CC[C@@H]6O[C@H](CO)OC[C@@]6(C)[C@@H]5CC[C@@]4(C)[C@]3(C)CC[C@@]2(C(=O)O[C@@H]2O[C@H](CO)[C@@H](O)[C@H](O)[C@H]2O)CC1` [Oblonganoside A], the EC50 in the assay with Tobacco mosaic virus [2] is 74 µg/mL (≈ 110 µM). Besides, the inhibition at 25 µg/mL in the assay with Tobacco mosaic virus [3] was found to be 10.1%. The inhibition at 100 µg/mL in the assay on Tobacco mosaic virus [4] turned out to be 61.9%. The inhibition at 50 µg/mL with Tobacco mosaic virus [5] was 30.1%. Further, the Imax in the assay on Tobacco mosaic virus [6] came out at 87.3%. Also, the inhibition at 200 µg/mL in the assay on Tobacco mosaic virus [1] stood at 80.3%.
With `CC1=C(C)[C@H]2C3=CC[C@@H]4[C@@]5(C)CC[C@H](O[C@@H]6OC[C@@H](O)[C@H](O)[C@H]6O)C(C)(C)[C@@H]5CC[C@@]4(C)[C@]3(C)CC[C@@]2(C(=O)O[C@@H]2O[C@H](CO)[C@@H](O)[C@H](O)[C@H]2O)CC1` [Oblonganoside B], in the assay on Tobacco mosaic virus [1], the inhibition at 200 µg/mL was found to be 56.4%.
Same read-out and setting: the value for `C=C1CC[C@]2(C(=O)O[C@@H]3O[C@H](CO)[C@@H](O)[C@H](O)[C@H]3O)CC[C@]3(C)C(=CC[C@@H]4[C@@]5(C)CC[C@H](O)[C@@](C)(CO)[C@@H]5CC[C@]43C)C2[C@]1(C)O` (stereo not given in full) [Oblonganoside E] was 21.5%; that for `C=C1CC[C@]2(C(=O)O[C@@H]3O[C@H](CO)[C@@H](O)[C@H](O)[C@H]3O)CC[C@]3(C)C(=CC[C@@H]4[C@@]5(C)CC[C@H](O[C@@H]6OC[C@@H](O)[C@H](O)[C@H]6O)C(C)(C)[C@@H]5CC[C@]43C)C2[C@]1(C)O` (stereo not given in full) [Oblonganoside F] was 39.7%.
